For 23 molecules, IC50 results are on record in patent US20260184707A1, “PHARMACEUTICAL COMPOUNDS FOR THE TREATMENT OF COMPLEMENT MEDIATED DISORDERS” (ALEXION PHARMACEUTICALS, INC., priority 2022, published 2026).

In this assay the target is T1, Human complement C1s enzyme (Homo sapiens, UniProt P09871).
T1 construct: purified from human serum, Complement Technology, Inc; purchased Complement Technology, Inc; host or cells: human serum (plasma-derived native protein)
T1 sequence (P09871 438-688 limits assumed): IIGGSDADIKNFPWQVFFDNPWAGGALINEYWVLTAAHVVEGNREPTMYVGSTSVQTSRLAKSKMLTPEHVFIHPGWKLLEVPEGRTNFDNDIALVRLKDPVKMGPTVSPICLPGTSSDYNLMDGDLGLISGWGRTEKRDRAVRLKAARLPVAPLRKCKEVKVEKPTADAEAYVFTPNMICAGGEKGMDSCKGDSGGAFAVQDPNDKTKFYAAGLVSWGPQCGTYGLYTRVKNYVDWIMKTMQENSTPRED
T1 sequence (P09871 16-437 partner limits assumed): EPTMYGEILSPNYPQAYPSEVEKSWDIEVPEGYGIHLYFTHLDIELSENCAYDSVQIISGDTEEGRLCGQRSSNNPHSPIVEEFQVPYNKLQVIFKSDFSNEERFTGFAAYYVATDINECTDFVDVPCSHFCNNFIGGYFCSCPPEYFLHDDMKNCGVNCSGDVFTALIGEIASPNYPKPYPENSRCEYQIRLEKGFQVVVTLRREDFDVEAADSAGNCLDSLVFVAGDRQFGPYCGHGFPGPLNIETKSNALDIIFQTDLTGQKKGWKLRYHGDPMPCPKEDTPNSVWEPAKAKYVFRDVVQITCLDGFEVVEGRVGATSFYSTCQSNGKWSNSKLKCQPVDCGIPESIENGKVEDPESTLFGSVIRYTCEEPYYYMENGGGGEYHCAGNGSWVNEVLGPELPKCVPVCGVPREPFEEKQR
The assay is described as follows: Human C1s enzyme assay. It is filed as biochemical. Particulars: human complement C1s enzyme 1.16 nM, substrate Z-L-Lys-SBzl, A405; read-out: IC50 (Stars). An outline of the steps: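 Serum-purified human C1s (1.16 nM final) preincubated 5 min at room temperature with compound in 50 mM Tris, 1 M NaCl, pH 7.5. Z-L-Lys-SBzl and DTNB added at 100 μM each; A405 recorded every 30 s. IC50 from nonlinear regression of reaction rates versus compound concentration.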

As for `O=C(Cn1c(-c2ccccc2)cnc(NC(=O)c2ccc3c(c2)-c2ccccc2C3(F)F)c1=O)NCc1cc2cnccc2[nH]1` [Compound 179, N-(4-(2-(((1H-pyrrolo[3,2-c]pyridin-2-yl)methyl)amino)-2-oxoethyl)-3-oxo-5-phenyl-3,4-dihydropyrazin-2-yl)-9,9-difluoro-9H-fluorene-3-carbox-amide], the 50% inhibitory concentration (IC50) – broadly, the concentration that inhibits the measured activity by half – is below 100 nM. As for `O=C(Cn1c(-c2cn[nH]c2)ncc(NCc2ccc3oc4ccccc4c3c2)c1=O)NCc1cc2cnccc2[nH]1` [Compound 312, N-((1H-pyrrolo[3,2-c]pyridine-2-yl)methyl)-2-(5-((dibenzo[b,d]furan-2-ylmethyl)amino)-6-oxo-2-(1H-pyrazol-4-yl)pyrimidin-1(6H)-yl)acetamide], the figure is below 100 nM; as for `N#Cc1c(NCCCc2ccccc2)ccc(-c2ccccc2)c1CC(=O)NCc1cc2cnccc2[nH]1` [Compound 302, N-((1H-pyrrolo[3,2-c]pyridine-2-yl)methyl)-2-(3-cyano-4-((3-phenylpropyl)amino)-[1,1′-biphenyl]-2-yl)acetamide], below 100 nM; as for `O=C(Cn1c(-c2ccccc2)ncc(NC(=O)c2ccc(Oc3ccc(F)cc3F)cc2)c1=O)NCc1cc2cnccc2[nH]1` [Compound 55, N-(1-(2-(((1H-pyrrolo[3,2-c]pyridin-2-yl)methyl)amino)-2-oxoethyl)-6-oxo-2-phenyl-1,6-dihydropyrimidin-5-yl)-4-(2,4-difluorophenoxy)benzamide], below 100 nM.

On to `C[C@@H](Nc1ncc(N2CCCC2)n(CC(=O)NCc2cc3cnccc3[nH]2)c1=O)c1ccc2oc3ccccc3c2c1` [Compound 440, (R)-N-((1H-pyrrolo[3,2-c]pyridin-2-yl)methyl)-2-(3-((1-(dibenzo[b,d]furan-2-yl)ethyl)-amino)-2-oxo-6-(pyrrolidin-1-yl)pyrazin-1(2H)-yl)acetamide], for which the IC50 was in the range of 100 to 1000 nM. Under `CS(=O)(=NC#N)c1ccc(CCCNc2cnc(-c3ccccc3)n(CC(=O)NCc3cc4cnccc4[nH]3)c2=O)cc1` (centres unmarked) [Compound 84, N-((1H-pyrrolo[3,2-c]pyridine-2-yl)methyl)-2-(5-((3-(4-(N-cyano-S-methylsulfonimidoyl)phenyl)propyl)amino)-6-oxo-2-phenylpyrimidin-1(6H)-yl)acetamide] stands below 100 nM; under `C[C@H](Nc1nccn(CC(=O)NCc2cc3cnccc3[nH]2)c1=O)c1ccc2oc3ccccc3c2c1` [Compound 299, (S)—N-((1H-pyrrolo[3,2-c]pyridine-2-yl)methyl)-2-(3-((1-(dibenzo[b,d]furan-2-yl)ethyl)amino)-2-oxopyrazin-1(2H)-yl)acetamide], below 100 nM.

Consider `O=C(CN1C(=O)[C@@H](NCCCc2ccccc2)CC[C@H]1c1ccccc1)NCc1cc2cnccc2[nH]1` (relative stereo) [Compound 489, N-((1H-Pyrrolo[3,2-c]pyridine-2-yl)methyl)-2-((3S*,6S*)-2-oxo-6-phenyl-3-((3-phenylpropyl)amino)piperidin-1-yl)acetamide], for which the 50% inhibitory concentration (IC50) is above 1000 nM. As for `Cc1cnc(CNc2cnc(-c3ccccc3)n(CC(=O)NCc3cc4cnccc4[nH]3)c2=O)o1` [Compound 455, N-((1H-pyrrolo[3,2-c]pyridin-2-yl)methyl)-2-(5-(((5-methyl-oxazol-2-yl)methyl)amino)-6-oxo-2-phenylpyrimidin-1(6H)-yl)acetamide], the figure is below 100 nM; as for `O=C(Cn1c(-c2ccccc2)ncc(NCCCCc2ccccc2)c1=O)NCc1cc2cnccc2[nH]1` [Compound 2, N-((1H-pyrrolo[3,2-c]pyridin-2-yl)methyl)-2-(6-oxo-2-phen-yl-5-((4-phenylbutyl)amino)-pyrimidin-1(6H)-yl)acetamide], below 100 nM; as for `O=C(Cn1c(N2CCCCC2)cnc(NCc2cc(-c3ccccc3)no2)c1=O)NCc1cc2cnccc2[nH]1` [Compound 473, N-((1H-pyrrolo[3,2-c]pyridin-2-yl)methyl)-2-(2-oxo-3-(((3-phenylisoxazol-5-yl)methyl)-amino)-6-(piperidin-1-yl)pyr-azin-1(2H)-yl)acetamide], below 100 nM. Under `O=C(Cn1c(-c2ccccc2)ncc(N2CCN(c3ccccc3)CC2)c1=O)NCc1cc2cnccc2[nH]1` [Compound 37, N-((1H-pyrrolo[3,2-c]pyridin-2-yl)methyl)-2-(6-oxo-2-phen-yl-5-(4-phenylpiperazin-1-yl)-pyrimidin-1(6H)-yl)acetamide] stands 100 to 1000 nM; under `C[C@@H](Nc1nccn(CC(=O)NCc2cc3cnccc3[nH]2)c1=O)c1ccc2oc3ccccc3c2c1` [Compound 329, (R)-N-((1H-pyrrolo[3,2-c]pyridin-2-yl)methyl)-2-(3-((1-(dibenzo[b,d]furan-2-yl)ethyl)-amino)-2-oxopyrazin-1(2H)-yl)acetamide], 100 to 1000 nM. As for `C[C@@H](Nc1ncc(N2CCC(O)CC2)n(CC(=O)NCc2cc3cnccc3[nH]2)c1=O)c1ccc2oc3ccccc3c2c1` [Compound 470, (R)-N-((1H-pyrrolo[3,2-c]pyridin-2-yl)methyl)-2-(3-((1-(dibenzo[b,d]furan-2-yl)ethyl)-amino)-6-(4-hydroxypiperidin-1-yl)-2-oxopyrazin-1(2H)-yl)-acetamide], the half-inhibitory concentration (IC50) was below 100 nM. Turning to `C[C@@H](Nc1cnc(N2CCCCC2)n(CC(=O)NCc2cc3cnccc3[nH]2)c1=O)c1ncc(-c2ccccc2)o1` [Compound 488, (R)-N-((1H-pyrrolo[3,2-c]pyridin-2-yl)methyl)-2-(6-oxo-5-((1-(5-phenyloxazol-2-yl)-ethyl)amino)-2-(piperidin-1-yl)pyrimidin-1(6H)-yl)acet-amide], the IC50 is below 100 nM. Regarding `O=C(Cn1c(-c2ccccc2)ncc(NCc2ccc(-c3ccccc3)cc2)c1=O)NCc1cc2cnccc2[nH]1` [Compound 19, N-((1H-pyrrolo[3,2-c]pyridin-2-yl)methyl)-2-(5-(([1,1′-biphenyl]-4-ylmethyl)amino)-6-oxo-2-phenylpyrimidin-1(6H)-yl)acetamide], the concentration for half-maximal inhibition (IC50) is below 100 nM. Under `C[C@@H](Nc1cnc(N2CCCCC2)n(CC(=O)NCc2cc3cnccc3[nH]2)c1=O)c1coc(-c2ccccc2)n1` [Compound 460, (R)-N-((1H-pyrrolo[3,2-c]pyridin-2-yl)methyl)-2-(6-oxo-5-((1-(2-phenyloxazol-4-yl)-ethyl)amino)-2-(piperidin-1-yl)pyrimidin-1(6H)-yl)acet-amide] stands 100 to 1000 nM; under `C[C@@H](Nc1cnc(N2CCSCC2)n(CC(=O)NCc2cc3cnccc3[nH]2)c1=O)c1ccc2oc3ccccc3c2c1` [Compound 384, (R)-N-((1H-pyrrolo[3,2-c]pyridin-2-yl)methyl)-2-(5-((1-(dibenzo[b,d]furan-2-yl)ethyl)-amino)-6-oxo-2-thiomorpho-linopyrimidin-1(6H)-yl)acet-amide], 100 to 1000 nM; under `C[C@H](Nc1cnc(N2CCOCC2)n(CC(=O)NCc2cc3cnccc3[nH]2)c1=O)c1ccc2oc3ccccc3c2c1` [Compound 295, (S)-N-((1H-pyrrolo[3,2-c]pyr-idin-2-yl)methyl)-2-(5-((1-(dibenzo[b,d]furan-2-yl)ethyl)-amino)-2-morpholino-6-oxo-pyrimidin-1(6H)-yl)acetamide], below 100 nM. Under `O=C(Cn1c(-c2ccc(S(F)(F)(F)(F)F)cc2)ncc(NCc2ccc(-c3ccccc3)cc2)c1=O)NCc1cc2cnccc2[nH]1` [Compound 298, N-((1H-pyrrolo[3,2-c]pyridin-2-yl)methyl)-2-(5-(([1,1′-biphenyl]-4-ylmethyl)amino)-6-oxo-2-(4-(pentafluoro-lambda6-sulfaneyl)phenyl)pyr-imidin-1(6H)-yl)acetamide] stands below 100 nM. As for `O=C(Cn1c(N2CCOCC2)ncc(NCc2ccc3oc4ccccc4c3c2)c1=O)NCc1cc2cnccc2[nH]1` [Compound 260, N-((1H-pyrrolo[3,2-c]pyridin-2-yl)methyl)-2-(5-((dibenzo [b,d]furan-2-ylmethyl)amino)-2-morpholino-6-oxopyrimidin-1(6H)-yl)acetamide], the figure is below 100 nM; as for `O=C(Cn1c(-c2ccccc2)ncc(NC(=O)c2csc(-c3ccccc3)n2)c1=O)NCc1cc2cnccc2[nH]1` [Compound 209, N-(1-(2-(((1H-pyrrolo[3,2-c]pyridin-2-yl)methyl)amino)-2-oxoethyl)-6-oxo-2-phenyl-1,6-dihydropyrimidin-5-yl)-2-phen-ylthiazole-4-carboxamide], below 100 nM. Consider `C[C@@H](Nc1cnc(C2=CCCCC2)n(CC(=O)NCc2cc3cnccc3[nH]2)c1=O)c1ccc2oc3ccccc3c2c1` [Compound 325, (R)-N-((1H-pyrrolo[3,2-c]pyr-idin-2-yl)methyl)-2-(2-(cyclo-hex-1-en-1-yl)-5-((1-(dibenzo [b,d]furan-2-yl)ethyl)amino)-6-oxopyrimidin-1(6H)-yl)acet-amide], for which the concentration for half-maximal inhibition (IC50) was below 100 nM.
